Test results taken from US5739146A, “Substituted cyclo or bicycloalkylamides of (8β)-6-(substituted) ergolines” (Eli Lilly and Company, priority 1995, dated 1998).
Structures can show the parent of a compound that is named as a salt. Where two headings read alike, the source gives them in different places.

Assays:
5HT1C receptor = biological target: T1, 5HT1C receptor (Bos taurus, UniProt A0AAA9SBU1); test: Inhibition of 3H-mesulergine binding to 5HT1C receptor
T1 sequence (A0AAA9SBU1 33-457): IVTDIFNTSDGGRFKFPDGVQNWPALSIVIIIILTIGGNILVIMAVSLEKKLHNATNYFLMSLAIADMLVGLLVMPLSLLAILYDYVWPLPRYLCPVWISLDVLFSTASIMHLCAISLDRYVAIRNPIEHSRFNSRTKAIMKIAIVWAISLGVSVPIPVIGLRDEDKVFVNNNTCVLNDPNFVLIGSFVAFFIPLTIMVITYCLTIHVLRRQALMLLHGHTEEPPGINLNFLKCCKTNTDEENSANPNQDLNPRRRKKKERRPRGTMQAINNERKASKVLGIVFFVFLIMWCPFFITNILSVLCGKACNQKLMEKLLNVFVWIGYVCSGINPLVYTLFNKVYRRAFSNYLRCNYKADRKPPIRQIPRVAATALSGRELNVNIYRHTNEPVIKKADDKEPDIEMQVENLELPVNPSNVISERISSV
Method: (§1) Radioactivity was measured with a liquid scintillation spectrometer.

5HT1A receptor = biological target: T2, 5HT1A receptor (Rattus norvegicus, UniProt P19327); test: Inhibition of 3H-8-hydroxy-2-(di-n-propylamino)tetralin binding to 5HT1A receptor; set-up: species or system male Sprague-Dawley rats
T2 construct: membranes isolated from bovine choroid plexus (for 5HT1.sbsb.c) or rat brain; from tissue
T2 sequence (P19327 1-422): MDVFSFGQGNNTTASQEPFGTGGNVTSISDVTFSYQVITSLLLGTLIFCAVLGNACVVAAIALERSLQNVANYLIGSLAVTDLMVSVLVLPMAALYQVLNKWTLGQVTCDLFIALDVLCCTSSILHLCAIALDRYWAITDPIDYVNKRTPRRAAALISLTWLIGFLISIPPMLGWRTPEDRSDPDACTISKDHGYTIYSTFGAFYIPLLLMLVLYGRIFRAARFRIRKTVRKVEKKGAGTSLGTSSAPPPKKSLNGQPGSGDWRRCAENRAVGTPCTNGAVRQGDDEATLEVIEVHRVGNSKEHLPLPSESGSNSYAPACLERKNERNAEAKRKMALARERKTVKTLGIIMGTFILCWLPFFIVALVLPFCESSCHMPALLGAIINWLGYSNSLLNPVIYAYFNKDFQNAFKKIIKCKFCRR
Method: as §1

5HT2 receptor = 5HT2 receptor (Rattus norvegicus, UniProt P14842); test: biochemical
Method: Binding was terminated by filtering samples under reduced pressure through glass fiber (GFB) filters. […] Radioactivity was measured with a liquid scintillation spectrometer.

5HT1D receptor = test: Inhibition of 3H-serotonin binding to 5HT1D receptor; set-up: species or system male Sprague-Dawley rats; details: rat brain membranes, 25 °C, 30 min, pH 7.4, read-out: Inhibition of Radioligand Binding to 5HT Receptor 1D (IC50)
Method: as §1

5HT1B receptor = biological target: T3, 5HT1B receptor (Rattus norvegicus, UniProt P28564); test: Inhibition of 3H-serotonin binding to 5HT1B receptor; set-up: species or system male Sprague-Dawley rats
T3 construct: membranes isolated from bovine choroid plexus (for 5HT1.sbsb.c) or rat brain; from tissue
Method: as §1

T3 sequence (P28564 whole entry): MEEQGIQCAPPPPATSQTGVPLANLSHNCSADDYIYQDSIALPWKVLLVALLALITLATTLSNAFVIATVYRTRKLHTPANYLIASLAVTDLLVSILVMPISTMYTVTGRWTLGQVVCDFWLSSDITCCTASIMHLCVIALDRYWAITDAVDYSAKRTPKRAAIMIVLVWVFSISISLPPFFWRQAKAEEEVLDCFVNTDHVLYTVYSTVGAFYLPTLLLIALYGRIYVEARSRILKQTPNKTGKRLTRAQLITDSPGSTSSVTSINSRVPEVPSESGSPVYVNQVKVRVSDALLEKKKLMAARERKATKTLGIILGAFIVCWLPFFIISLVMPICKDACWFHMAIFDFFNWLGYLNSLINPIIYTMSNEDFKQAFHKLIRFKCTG
Chain of 5HT2 receptor (P14842 whole entry): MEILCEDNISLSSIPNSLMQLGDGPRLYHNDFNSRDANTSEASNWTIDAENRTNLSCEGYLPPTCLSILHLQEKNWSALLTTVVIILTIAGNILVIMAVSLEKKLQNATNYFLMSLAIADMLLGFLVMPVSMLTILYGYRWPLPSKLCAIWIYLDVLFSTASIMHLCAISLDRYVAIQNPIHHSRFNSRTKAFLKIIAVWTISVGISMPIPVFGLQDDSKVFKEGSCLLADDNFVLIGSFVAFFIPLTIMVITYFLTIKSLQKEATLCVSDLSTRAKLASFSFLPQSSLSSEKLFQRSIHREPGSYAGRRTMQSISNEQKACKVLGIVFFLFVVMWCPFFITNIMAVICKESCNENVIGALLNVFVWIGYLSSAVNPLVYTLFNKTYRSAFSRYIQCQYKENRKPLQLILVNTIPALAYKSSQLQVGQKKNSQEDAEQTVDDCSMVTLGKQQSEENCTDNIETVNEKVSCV

`CC(C)n1cc2c3c(cccc31)[C@H]1C[C@@H](C(=O)N[C@H]3CC[C@H](NS(C)(=O)=O)CC3)CN(C)[C@@H]1C2` (relative stereo) [Example 2, (8β)-N-(trans-4-methylsulfonamidocyclohexyl)-1-isopropyl-6-methylergoline-8-carboxamide maleate] gave an IC50 (5HT1C receptor; bovine choroid plexus membranes; 2 nM 3H-mesulergine; 25 °C, 30 min, pH 7.4; read-out: Inhibition of Radioligand Binding to 5HT Receptor 1C (IC50)) of 22 nM, an IC50 (5HT1A receptor) of 2650 nM and an IC50 (5HT2 receptor) of 23 nM. It also gave an IC50 (5HT1D receptor) of 276 nM and an IC50 (5HT1B receptor) of 489 nM.
For `CC(=O)N[C@H]1CC[C@H](NC(=O)[C@@H]2C[C@@H]3c4cccc5c4c(cn5C(C)C)C[C@H]3N(C)C2)CC1` (relative stereo) [Example 1, (8β)-N-(trans-4-acetamidocyclohexyl)-1-isopropyl-6-methylergoline-8-carboxamide], the IC50 (5HT1C receptor; read-out: Inhibition of Radioligand Binding to 5HT Receptor 1C (IC50); bovine choroid plexus membranes; 2 nM 3H-mesulergine; 25 °C, 30 min, pH 7.4) was 18 nM, the IC50 (5HT1A receptor; rat brain membranes, 3H-8-hydroxy-2-(di-n-propylamino)tetralin, 25 °C, 30 min, pH 7.4, read-out: Inhibition of Radioligand Binding to 5HT Receptor 1A (IC50)) was 2310 nM and the IC50 (5HT2 receptor) was 31 nM. It also gave an IC50 (5HT1D receptor) of 198 nM and an IC50 (5HT1B receptor; rat brain membranes, 3H-serotonin, 25 °C, 30 min, pH 7.4, read-out: Inhibition of Radioligand Binding to 5HT Receptor 1B (IC50)) of over 1000 nM.
